Test results as given in PMC10982999, “Structure-Guided Design and Optimization of Covalent VHL-Targeted Sulfonyl Fluoride PROTACs” (Journal of Medicinal Chemistry, 2024).

Target: T1, VHL (VCB) (Homo sapiens, UniProt P40337)
T1 construct: human VHL (UniPort entry P40337, residues 1 -213); 6xHis followed by TEV site (N, cleaved yes); made in house; host or cells: E. coli One Shot BL21(DE3)
Assay: Intact-protein LC-MS of VCB labelling
Format: binding
Conditions: 100 μM compound, 24 h, room temperature
Method: Initially, we subjected VHL-SF2-Biotin to the streptavidin shift assay and observed a greater extent of VHL modification (44%) than for VHL-SF1-Biotin under the same conditions (Figure S2). […] Intact LC–MS analysis confirmed single labeling of VHL by VHL-SF2, with 65% conversion at 24 h (Figure S5). Although we attempted several site ID identification experiments by digesting the labeled recombinant VHL, the Ser110-containing peptide was not detected in the samples treated with VHL-SF2. This observation is consistent with a change in peptide properties that is incompatible with mass spectrometry detection compared to untreated samples (Table S2). […]
Figure S4. Dose-response of VHL-SF1 following a 2 h pre-incubation in the presence of VCB and FAM-conjugated HIF1α-derived peptide, assessed by fluorescence polarization. […]
HEK293 cells (10 × 10^6 cells at 2 × 10^5 cells/ mL) were transfected with 2.6 µg of VHL-NanoLuc plasmid (PROMEGA) plus 24 µg of transfection carrier plasmid (PROMEGA) and incubated for 20 h at 37 °C, in a 5% CO2 incubator. […] Immediately after addition of tracer and compounds, cells were treated with digitonin after which NanoBRET Nano-Glo Substrate and inhibitor were added and BRET signal was measured in a Clariostar plate reader (BMG Labtech) at 450 nm and 610 nm within 5 min after addition of digitonin. […]

Cc1cc([C@H](C(=O)N2C[C@H](S(=O)(=O)F)C[C@H]2C(=O)N[C@@H](CC(=O)OC(C)(C)C)c2ccc(-c3scnc3C)cc2)C(C)C)on1 [VHL-SF2, tert-Butyl (S)-3-((2S,4R)-4-(Fluorosulfonyl)-1-((R)-3-methyl-2-(3-methylisoxazol-5-yl)butanoyl)pyrr-olidine-2-carboxamido)-3-(4-(4-methylthiazol-5-yl)phenyl)propanoate]
conversion, single (mono) labelling of VHL: 65%
